According to ChEMBL document CHEMBL1144669, “Pyridazinone derivatives: design, synthesis, and in vitro vasorelaxant activity” (2008):

Experiment: Vasorelaxant effect in rabbit pulmonary artery assessed as inhibition of KCl-induced contraction at 100 uM
Assay type: functional
Conditions: Oryctolagus cuniculus

SMILES | inhibition at 100 µM [%]
N#Cc1c(-c2cccc([N+](=O)[O-])c2)cc(-c2cccc(Nc3ccc(=O)[nH]n3)c2)[nH]c1=O | 9.1
CCOc1ccc2nc(C)cc(Nc3ccc(C4=NNC(=O)CC4)c(O)c3)c2c1 | 36.2
COc1ccc2nc(C)cc(Nc3ccc(C4=NNC(=O)CC4)c(C)c3)c2c1 | 25
COc1ccc2nc(C)cc(Nc3ccc(C4=NNC(=O)CC4C)cc3)c2c1 (stereo unspecified) | 21.5
Cc1ccc2nc(C)cc(Nc3ccc(C4=NNC(=O)CC4)c(O)c3)c2c1 | 18.5
CCOC(=O)c1c[nH]c2ccc(C3=NNC(=O)CC3C)cc2c1=O (stereo unspecified) | 14.5
CCOC(=O)c1c[nH]c2ccc(C3=NNC(=O)CC3)cc2c1=O | 14.5
COc1ccc2nc(C)cc(Nc3ccc(C4=NNC(=O)CC4)c(O)c3)c2c1 | 34.3
N#Cc1c(-c2cccnc2)cc(-c2cccc(Nc3ccc(=O)[nH]n3)c2)[nH]c1=O | 8.17
Cc1ccc2nc(C)cc(Nc3ccc(C4=NNC(=O)CC4C)cc3)c2c1 (stereo unspecified) | 22.7
Cc1[nH]c(=O)c(C#N)cc1-c1ccncc1 [MILRINONE] | 60.5
